{"source": "patent US20250041313A1", "about": "“COMBINATION THERAPY FOR TREATMENT OF CANCER” (CITY OF HOPE, priority 2023, published 2025)", "key": {"[1]": {"tested_on": "SBC3 cells", "assay": "CCK-8 cell viability/cytotoxicity assay, 72 h", "format": "cell-based, human", "conditions": "SBC3, CCK-8 72 h, fixed concentrations of Teri and Carbo; read-out: IC50, single treatment and combination treatment", "procedure": "The expression levels of DRP1 and DHODH in SCLC lines were compared with non-malignant BEAS 2B cells. […] Previous studies have shown that Leflu and its active metabolite Teri regulate mitochondrial morphology (9,10,26). […] In vitro cytotoxicity effect of Teri and Leflu was tested in a panel of SCLC cell lines. Ten SCLC cell lines were treated with increasing concentrations of each drug for 72 h.\nIsobologram and CI50 values were calculated using the Chou-Talalay method and IC50 to find synergism (FIG. 3B)."}, "[2]": {"tested_on": "SBC3 xenograft", "assay": "SBC3 mouse xenograft, Carbo/Leflu study", "format": "in vivo", "procedure": "(§1) Athymic nude nu/nu mice were obtained from Charles River, Wilmington, MA, and were acclimated for a week before beginning the experiment. All animal experiments were carried out in accordance with a protocol approved by the Institutional Animal Care and Use Committee COH (IACUC #16004). For treatments, mice were divided into 4 groups with five mice per group and subcutaneously injected into one flank with 2×10^6 SBC3 or SBC5 cells suspensions in 100 μl of PBS. Treatment started on the 14th day when tumors became palpable. Two in vivo studies were done in this project. SBC3 and SBC 5 xenograft with i) vehicle control, ii) […] 50 mg/kg, iii) Leflu 7.5 mg/kg, and iv) […]/Leflu. SBC3 with i) vehicle control, ii) Lur 0.5 mg/kg, iii) Leflu 3.8 mg/kg, and iv) Lur/Leflu. Treatments were given to mice via i.p. twice a week for 6 weeks. Animals were examined daily for signs of tumor growth. Tumors were measured in two dimensions using calipers and body weights were recorded. Animals were photographed on days 1, 5, 10, 15, 20, 25, 30, 35, and 40 after treatment. Tumors were removed on day 40 and photographed. At the end of the study, the mice were euthanized by CO2 asphyxiation followed by cervical dislocation. The tumor weights were compared between groups using an unpaired Student's t-test. A portion of the tumor was fixed in 10% buffered formaldehyde solution and paraffin-embedded for immuno-staining. FFPE tumor sections were stained with pDRP Ser^616 antibody. Tumor sections were deparaffinized and rehydrated, followed by heat-mediated antigen retrieval (pH 6, Dako). After permeabilization and blocking, tumor sections were stained with pDRP1 Ser^616 antibody overnight, washed and incubated with Alexa 488 secondary antibody for one hour, mounted and observed on an LSM 880 with a 10×/0.45 NA objective (Carl Zeiss). Immunofluorescent confocal images were acquired for each treatment (magnification:100×). Mean immunofluorescence intensities were calculated with ZEN 2.3 Lite software."}, "[3]": {"tested_on": "SBC5 xenograft", "assay": "SBC5 mouse xenograft, Carbo/Leflu study", "format": "in vivo", "conditions": "Carbo 50 mg/kg, Leflu 7.5 mg/kg, i.p. twice a week", "procedure": "as §1, with “A portion of the tumor was fixed in 10% buffered formaldehyde solution and paraffin-embedded for immuno-staining. FFPE tumor sections were stained with pDRP Ser^616 antibody. Tumor sections were deparaffinized and rehydrated, followed by heat-mediated antigen retrieval (pH 6, Dako). After permeabilization and blocking, tumor sections were stained with pDRP1 Ser^616 antibody overnight, washed and incubated with Alexa 488 secondary antibody for one hour, mounted and observed on an LSM 880 with a 10×/0.45 NA objective (Carl Zeiss). Immunofluorescent confocal images were acquired for each treatment (magnification:100×).” left out"}, "[4]": {"tested_on": "SBC3 cells", "assay": "LC-MS of nucleotides, nucleosides and nucleobases in cell pellets", "format": "cell-based, human", "set-up": "unit not given here", "procedure": "These studies were performed by Creative Proteomics in their facility in Shirley, NY. Each sample was placed into 250 μL of 80% methanol. Tissue samples were weighed in 2-mL Eppendorf tubes, and 80% methanol was added at 10 μL per mg of raw tissue. The tissue and cell samples were then homogenized on a MM 400 mill mixer with the aid of two 4-mm metal beads at a shaking frequency of 30 Hz for 2 min and the homogenization step was repeated twice. The samples were placed at −20° C. for 1 h and then centrifuged at 21,000×g for 10 min. The clear supernatants were collected for LC-MS quantitation. Protein content was measured from protein pellets by Bradford protein assays and used to normalize metabolite concentrations from cell pellets. A stock solution contained standard substances of all the targeted nucleotides, nucleosides, and nucleobases were prepared at 200 nmol/mL for each in an internal standard solution of ^13C- and/or ^15N-labeling AMP, ATP, GMP, GTP, UMP, UTP, adenine and adenosine. This solution was serially diluted with the same solution to prepare 10-point calibration solutions in a concentration range of 0.0001 to 50 μM. 10 μL of the supernatant of each sample was mixed with 90 μL of the internal standard solution. 10 μL aliquots of the sample solutions and the standard solutions were injected into a C18 LC column (2.1*150 mm, 1.9 μm) to run UPLC-MRM/MS on a Waters Acquity UPLC system coupled to a Sciex QTRAP 6500 Plus mass spectrometer operated in the negative-ion mode for detection of nucleotides. The mobile phase was a triethylamine buffer (A) and acetonitrile/methanol (1:1) (B) for binary gradient elution (5% to 60% B in 25 min), at 0.25 mL/min and 55° C. For quantitation of nucleosides and nucleobases, 10-μL aliquots of the sample solutions and the standard solutions were injected onto a polar reversed-phase C18 column (2.1*100 mm, 1.6 μm) to run UPLC-MRM/MS on a Waters Acquity UPLC system coupled to a Sciex QTRAP 6500 Plus mass spectrometer operated in the positive-ion mode. The mobile phase was 0.1% formic acid-ammonium formate buffer (A) and methanol (B) for binary gradient elution (0% to 40% B in 15 min), at 0.25 mL/min and 30° C. Concentrations of the detected nucleotides, nucleosides or nucleobases in the UPLC-MRM/MS runs were calculated with internal-standard calibration by interpolating the constructed linear-regression curves of individual compounds, with the analyte-to-internal standard peak area ratios measured from the sample solutions.\nThe effect of treatment on the concentration of purines and pyrimidines for both cell lines and xenograft were modelled as concentration=Treatment1+Treatment2+Treatment1*Treatment2. For cell lines, Treatment 1-2 were […] and Teri, while for the xenografts—Lur and Leflu respectively. The significance of the effects was ascertained by p-values associated with the coefficients of the model (20). The p-values were FDR corrected to account for repeated testing. The coefficient for the interaction term (Treatment1*Treatment2) and its associated p-value correspond to the synergistic effect of the two treatments. Coefficients and p-values for the rest of the terms indicate significance of each treatment alone. Statistical analysis was conducted in R."}, "[5]": {"tested_on": "SBC3 cells", "assay": "Imaris quantification of mitochondrial and nuclear areas/morphology", "format": "cell-based, human", "conditions": "SBC3", "procedure": "(§2) Imaris 9.9.0 (Bitplane, AG), with Surfaces and Cells modules, was used to generate mitochondria morphology data from 2D images and 2D Z-stack subsets. Surfaces were used to evaluate individual mitochondria from cell monolayers and spheroids. Detection parameters were optimized for visible mitochondria and nuclei in each group with varying signal intensities. Roundness ratios were calculated from Surface generated Bounding Box 00 Length measurements. Object lengths less than 0.1 μm were excluded, and lengths greater than 1.26 μm were separately analyzed as clusters. Thresholds were uniformly applied to roundness ratios to categorize mitochondria morphology as elongated (<0.599), intermediate (≥0.600-0.649), or round/fragmentated (≥0.650). The percentage of cells from total number is based on a ratio. A perfectly round object has a ratio of 1.0. The Cells module was used to detect and quantify mitochondria and nucleus area from cell monolayers. Identical parameters were applied to all groups with cell boundary detection based on mitochondria signals. Imaris includes nuclei in cytoplasm measurements, so mitochondrial area is calculated by subtracting nucleus area from cell cytoplasm area. Abnormal nuclei were excluded (<100 μm^2, >750 μm^2).\nMitoTracker Red and Hoechst 33342 were used to validate Teri and Leflu effects on intact mitochondrial morphology in SBC3 and SBC5 cells. M1 and MDIVI1 compounds were used as positive controls because they are promoters of mitochondrial fusion. Mitochondrial and nuclear areas were quantified by analyzing object surface area and intensity in Imaris 9.9.0."}, "[6]": {"tested_on": "SCLC", "conditions": "relapsed / second-line SCLC patients; cited from earlier work"}, "[7]": {"tested_on": "SBC5 cells", "assay": "Imaris quantification of mitochondrial and nuclear areas/morphology", "format": "cell-based, human", "conditions": "SBC5, 10 μM", "procedure": "as §2\nNext, we performed the same analysis with SBC5 cells. […] Mitochondrial elongation in SBC3 cells treated with Teri and Leflu is visible and correlates with Imaris Surface results. […] Although mitochondrial areas of SBC5 cells were not affected by Teri and Leflu treatments, elongations of individual mitochondria were detected with each treatment (FIG. 2I). […] Therefore, it is important to investigate the effects of Teri and Leflu on mitochondrial morphology and cell survival in combination with chemotherapeutic drugs."}}, "data": [{"compound": "carboplatin", "values": [{"measurement": "IC50", "setting": "[1]", "value": 4.12, "unit": "µM"}, {"measurement": "pDRP1 Ser616 immunofluorescence in tumor sections", "setting": "[2]; SBC3 xenograft FFPE tumors", "value": "significant decrease"}, {"measurement": "reduction in tumor size/weight", "setting": "[2]; SBC3 xenograft, day 40, vs control", "value": "~58", "unit": "%"}, {"measurement": "average final tumor weight at end of study (day 40)", "setting": "[2]; SBC3 xenograft, Carbo 50 mg/kg, Leflu 7.5 mg/kg, i.p. twice a week", "value": "0.75 ± 0.10", "unit": "g"}, {"measurement": "final tumor weight (day 40)", "setting": "[3]", "value": "0.64 ± 0.10", "unit": "g"}, {"measurement": "ATP concentration", "setting": "[4]", "value": "27.92±0.55"}, {"measurement": "UTP concentration", "setting": "[4]", "value": "9.29±0.4"}, {"measurement": "XMP concentration", "setting": "[4]", "value": "0.35±0.18"}, {"measurement": "dATP concentration", "setting": "[4]", "value": "0.17±0.002"}, {"measurement": "dCTP concentration", "setting": "[4]", "value": "0.06±0.004"}, {"measurement": "dm5UTP concentration", "setting": "[4]", "value": "0.44±0.001"}, {"measurement": "xanthosine concentration", "setting": "[4]", "value": "0.094±0.045"}]}, {"compound": "CC(=NNc1c(Cl)cc(Cl)cc1Cl)c1cc(Cl)ccc1O", "note": "[M1]", "values": [{"measurement": "Mitochondrial elongation (Airyscan imaging)", "setting": "[5]", "value": "moderately affected"}, {"measurement": "effect on mitochondrial or nuclear areas", "setting": "[5]", "value": "did not affect"}]}, {"compound": "CC[C@@]1(O)C(=O)OCc2c1cc1n(c2=O)Cc2cc3c(CN(C)C)c(O)ccc3nc2-1", "note": "[topotecan, Topotecan]", "values": [{"measurement": "ORR", "setting": "[6]", "value": 24, "unit": "%"}, {"measurement": "median PFS", "setting": "[6]", "value": 3.4, "unit": "months"}]}, {"compound": "COc1cc(-n2c(=S)[nH]c3ccccc3c2=O)c(Cl)cc1Cl", "note": "[MDIVI1]", "values": [{"measurement": "Mitochondrial elongation (Airyscan imaging)", "setting": "[5]", "value": "moderately affected"}, {"measurement": "effect on mitochondrial or nuclear areas", "setting": "[5]", "value": "did not affect"}, {"measurement": "Mitochondrial area", "setting": "[7]", "value": "419.9±13.26", "unit": "μm^2"}]}]}
